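Five concentrations, 48 hours, 96-well plates. At the GI50, growth is halved. TGI marks complete inhibition of growth.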
Tests used:
Assay in all cases: inhibition of tumour cell growth, NCI panel, 48 h
[1] = test system: BT-549 breast
[2] = test system: SK-MEL-5 melanoma
[3] = test system: M14 melanoma
[4] = test system: SF-539 CNS
[5] = test system: NCI-H522 lung
[6] = test system: UACC-62 melanoma
[7] = test system: HCC-2998 colon
[8] = test system: OVCAR-4 ovarian
[9] = test system: UACC-257 melanoma
[10] = test system: NCI-H460 lung
[11] = test system: SN12C renal
[12] = test system: A498 renal
[13] = test system: HS 578T breast
[14] = test system: ACHN renal
[15] = test system: CAKI-1 renal
[16] = test system: RXF 393 renal
[17] = test system: IGROV1 ovarian
[18] = test system: TK-10 renal
[19] = test system: NCI/ADR-RES ovarian
[20] = test system: LOX IMVI melanoma
[21] = test system: DU-145 prostate
[22] = test system: SW-620 colon
[23] = test system: EKVX NSCLC
[24] = test system: HCT-15 colon
[25] = test system: OVCAR-8 ovarian
[26] = test system: HL-60(TB) leukemia
[27] = test system: NCI-H23 lung
[28] = test system: HOP-62 NSCLC
[29] = test system: 786-0 renal
[30] = test system: MCF7 breast
[31] = test system: KM12 colon
[32] = test system: MDA-MB-231 breast
[33] = test system: SF-268 CNS
[34] = test system: MDA-MB-435
[35] = test system: A549 NSCLC
[36] = test system: MOLT-4 leukemia
[37] = test system: SR leukemia
[38] = test system: NCI-H226 lung
[39] = test system: U251 CNS
[40] = test system: RPMI-8226 leukemia
[41] = test system: COLO 205 colon
[42] = test system: UO-31 renal
[43] = test system: CCRF-CEM leukemia
[44] = test system: SK-OV-3 ovarian
[45] = test system: SNB-75 CNS
[46] = test system: SNB-19 CNS
[47] = test system: PC-3 prostate
[48] = test system: SK-MEL-2 melanoma
[49] = test system: HT29 colon
[50] = test system: MALME-3M melanoma
[51] = test system: HOP-92 NSCLC
[52] = test system: OVCAR-5 ovarian
[53] = test system: OVCAR-3 ovarian
[54] = test system: T-47D breast
[55] = test system: HCT-116 colon
[56] = test system: SK-MEL-28 melanoma

`COC(=O)C1=C(C)NC(C)=C(C(=O)OCC(C)C)C1c1ccccc1[N+](=O)[O-]` (configuration not stated) showed a GI50 [1] of 5.06 µM, a TGI [1] of 17.1 µM and a GI50 [2] of 2.72 µM. It also gave a TGI [2] of 10.1 µM, a GI50 [3] of 2.9 µM and a TGI [3] of 8.21 µM. It also gave a GI50 [4] of 5.3 µM, a TGI [4] of 16.8 µM and a GI50 [5] of 2.4 µM. It also gave a TGI [5] of 10.7 µM, a GI50 [6] of 2.28 µM and a TGI [6] of 11.2 µM. It also gave a GI50 [7] of 6.18 µM, a TGI [7] of 22.4 µM and a GI50 [8] of 2.32 µM. For the same compound, the TGI [8] was 11.8 µM, the GI50 [9] was 3.71 µM and the TGI [9] was 12.5 µM. It also gave a GI50 [10] of 3.6 µM, a TGI [10] of 15.2 µM and a GI50 [11] of 4.15 µM. The TGI [11] was 19.8 µM, the GI50 [12] was 10.7 µM and the TGI [12] was 23.7 µM. It also gave a GI50 [13] of 13.9 µM, a TGI [13] of over 100 µM and a GI50 [14] of 2.22 µM. The TGI [14] was 10.6 µM, the GI50 [15] was 2.29 µM and the TGI [15] was 11 µM. The GI50 [16] was 2.11 µM, the TGI [16] was 8.31 µM and the GI50 [17] was 5.55 µM. For the same compound, the TGI [17] was 25.9 µM, the GI50 [18] was 4.11 µM and the TGI [18] was 13 µM. For the same compound, the GI50 [19] was 2.07 µM, the TGI [19] was 16.8 µM and the GI50 [20] was 3.07 µM. It also gave a TGI [20] of 16.6 µM, a GI50 [21] of 5.48 µM and a TGI [21] of 34.7 µM. The GI50 [22] was 3.11 µM, the TGI [22] was 11.4 µM and the GI50 [23] was 8.06 µM. For the same compound, the TGI [23] was 32.7 µM, the GI50 [24] was 3.88 µM and the TGI [24] was 15.9 µM. For the same compound, the GI50 [25] was 4.33 µM, the TGI [25] was 21 µM and the GI50 [26] was 2.73 µM. For the same compound, the TGI [26] was 9.46 µM, the GI50 [27] was 3.47 µM and the TGI [27] was 16.5 µM. It also gave a GI50 [28] of 5.24 µM, a TGI [28] of 18.4 µM and a GI50 [29] of 3.55 µM. The TGI [29] was 12.6 µM, the GI50 [30] was 3.58 µM and the TGI [30] was 16.1 µM. It also gave a GI50 [31] of 2.94 µM, a TGI [31] of over 100 µM and a GI50 [32] of 4.04 µM. The TGI [32] was 17.1 µM, the GI50 [33] was 7.8 µM and the TGI [33] was 22.7 µM. It also gave a GI50 [34] of 4.25 µM, a TGI [34] of 17.6 µM and a GI50 [35] of 4.52 µM. For the same compound, the TGI [35] was 18.9 µM, the GI50 [36] was 3.31 µM and the TGI [36] was 18.9 µM. For the same compound, the GI50 [37] was 2.53 µM, the TGI [37] was 11.3 µM and the GI50 [38] was 3.75 µM. It also gave a TGI [38] of 15.1 µM, a GI50 [39] of 4.27 µM and a TGI [39] of 17.6 µM. For the same compound, the GI50 [40] was 3.25 µM, the TGI [40] was 25.8 µM and the GI50 [41] was 13.3 µM. The TGI [41] was 26 µM, the GI50 [42] was 1.73 µM and the TGI [42] was 7.07 µM. It also gave a GI50 [43] of 2.45 µM, a TGI [43] of 11.3 µM and a GI50 [44] of 4.65 µM. For the same compound, the TGI [44] was 17.4 µM, the GI50 [45] was 2.44 µM and the TGI [45] was 15.2 µM. For the same compound, the GI50 [46] was 8.2 µM, the TGI [46] was 64.3 µM and the GI50 [47] was 3.54 µM. It also gave a TGI [47] of 16.9 µM, a GI50 [48] of 4 µM and a TGI [48] of 13.6 µM. It also gave a GI50 [49] of 9.2 µM, a TGI [49] of 22.9 µM and a GI50 [50] of 4.47 µM. For the same compound, the TGI [50] was 17.2 µM, the GI50 [51] was 4.57 µM and the TGI [51] was 19.8 µM. The GI50 [52] was 7.52 µM, the TGI [52] was 22.5 µM and the GI50 [53] was 6.35 µM. It also gave a TGI [53] of 19.6 µM, a GI50 [54] of 3.9 µM and a TGI [54] of 16.4 µM. It also gave a GI50 [55] of 3.02 µM, a TGI [55] of 12.1 µM and a GI50 [56] of 4.18 µM. It also gave a TGI [56] of 15.2 µM.

Source: PubChem BioAssay (NCI)
